Assay results published in publication PMC5608758, “A brain-targeting lipidated peptide for neutralizing RNA-mediated toxicity in Polyglutamine Diseases” (Scientific Reports, 2017).

Key:
MJD CAA/G78 RNA = test: Isothermal titration calorimetry binding assay, expanded CAA/G RNA; settings: ITC; 0.7 mM P3V8 titrated into 0.5 µM MJD CAA/G78 RNA; one binding site model; mean ± S.E.M., at least 3 independent experiments
Protocol: (§1) Experiments were carried out using a MicroCal iTC200 isothermal titration calorimeter (GE Healthcare) at 25 °C. Data were analyzed using the Origin® scientific plotting software version 7 (Microcal Software Inc.). All RNAs and peptides were dissolved in binding buffer (20 mM MOPS, pH 7.0; 300 mM NaCl) and 0.7 mM of peptide was titrated into 0.5 µM of RNA for each experiment. The concentration of RNA was estimated with appropriate extinction coefficients at 260 nm on a Nanodrop 2000 (Thermo Scientific). A reference power of 8 μcal/s was used with an initial 0.5 µl of injection of peptide followed by 2 µl for all subsequent titrations points with a 60 sec initial equilibrium delay and 150 sec pause between injections. The samples were stirred at a speed of 1000 rpm throughout the experiment. The thermal titration data were fitted to the ‘one binding site model’ to determine the dissociation constant (KD). Each experiment was repeated at least 3 times with consistent results obtained.

MJD CAG27 RNA = test: Isothermal titration calorimetry binding assay, unexpanded CAG RNA; settings: ITC
Protocol: as §1

expanded MJD CAG78 RNA = test: Isothermal titration calorimetry binding assay, expanded CAG RNA
Protocol: as §1

[1] = test system: pre-rRNA in DsRed CAG100 flies; test: Real-time PCR of pre-rRNA level in fly heads; assay type: in vivo, Drosophila; settings: 1 μM peptide, 12 day-old adult fly heads
Protocol: RNA was extracted from cells or ten 12 day-old adult fly heads by Trizol reagent (Life Technologies), and 1 μg of purified RNA was then used for reverse-transcription using the ImPromII™ Reverse Transcription System (Promega). Random hexamer (Roche) was used as primers in reverse transcription. Taqman gene expression assays were performed on an ABI 7500 Real-time PCR system and data were analyzed as previously described. The following probes were used: pre-45s rRNA (Assay ID: AILJIZM), pre-rRNA (Assay ID: AIMSG5U), Drosophila GAPDH (Assay ID: Dm01841186) and human actin (Assay ID: Hs99999903_m1). Each experiment was repeated at least 3 times.

DsRed CAG100 Drosophila = test: Pseudopupil assay of retinal degeneration; assay type: in vivo; settings: 1 µM peptide fed to third instar larvae for 2 hr in 2% sucrose; 12 day-old adult flies; mean ± S.E.M.
Protocol: Flies were raised at 21.5 °C on cornmeal medium supplemented with dry yeast. Fly lines bearing UAS-DsRed CAG0 and UAS-DsRed CAG100 were kind gifts of Professor Nancy Bonini (University of Pennsylvania, USA). The gmr-GAL4 fly line was obtained from Bloomington Drosophila Stock Center. For pseudopupil assay, third instar larvae were fed with various amount of respective peptides dissolved in 2% sucrose solution for 2 hr and then continued to culture in standard fly food at 21.5 °C[38]. Pseudopupil assay was performed on 12 day-old adult flies as mentioned previously. Images were captured by SPOT Insight CCD camera controlled by the SPOT Advanced software (Diagnostic instruments Inc.). Image processing was performed using the Adobe Photoshop CS software (Adobe). Each experiment was repeated at least 3 times (n = 10 fly heads), and consistent results were obtained. For viability test of wild-type flies from egg to adult stage, eggs born within 5 hr were collected and cultured in fly food containing 10 or 50 μM of respective peptides at 21.5°C. Viability from egg-to-adult was calculated as the number of adult flies collected divided by the number of eggs examined. Each experiment was repeated for three times (at least 130 eggs were examined in each group). Two batches of independently synthesized peptides were used in the experiments.

## Ac-DGKSKGIAYIEFK-NH2 [P3V8]
MJD CAA/G78 RNA
  Kd: 2940 ± 960 nM
MJD CAG27 RNA; 0.7 mM P3V8 titrated into 0.5 µM MJD CAG27 RNA, one binding site model, mean ± S.E.M., at least 3 independent experiments
  Kd: 2190 ± 270 nM
MJD CAG27 RNA; MJD CAG27 RNA or MJD CAA/G78 RNA versus MJD CAG78 RNA
  lower affinity for unexpanded RNA or expanded CAA/G RNA than for expanded CAG RNA: 6–9 fold
Expanded MJD CAG78 RNA; ITC KD relative to P3
  improvement of binding affinity for expanded CAG RNA over P3: more than 20 fold
Expanded MJD CAG78 RNA; ITC, 25 °C, 20 mM MOPS pH 7.0, 300 mM NaCl, 0.7 mM peptide titrated into 0.5 µM MJD CAG78 RNA, one binding site model, mean ± S.E.M., at least 3 independent experiments
  Kd: 330 ± 40 nM
[1]
  pre-rRNA level: fully recovered to the DsRed CAG0 control level
DsRed CAG100 Drosophila
  pseudopupil score: 4.32 ± 0.25
